In ChEMBL document CHEMBL1201862, “PubChem BioAssay data set” (2004):
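Dose response: 5 concentrations. Exposure: 48 h. Format: 96-well plates. Endpoint: linear interpolation; highest concentration if not reached. GI50 = concentration required for 50% inhibition of growth.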 Active and inactive are the calls of the source. Cut-off read from the data, not from the text of the source: active = GI50 up to about 1.1 µM and inactive = higher.

Tests used:
Experiment in all cases: NCI anticancer screen, dose series, 48 h
[1] = system: A498
[2] = system: ACHN
[3] = system: CCRF-CEM
[4] = system: COLO 205
[5] = system: HL-60
[6] = system: HOP-62
[7] = system: K562
[8] = system: KM12
[9] = system: MOLT-4
[10] = system: NCI-H23
[11] = system: NCI-H522
[12] = system: OVCAR-3
[13] = system: RXF 393
[14] = system: SF-268
[15] = system: SF-539
[16] = system: SK-MEL-5
[17] = system: SN12C
[18] = system: UACC-257
[19] = system: UACC-62
[20] = system: UO-31

COc1ccc(C(OCC2OC(n3cnc4c(=O)n(Cc5ccccc5[N+](=O)[O-])nnc43)C(O)C2O)(c2ccccc2)c2ccc(OC)cc2)cc1 (stereo not given)
GI50 [1]: 4.46 µM (inactive)
GI50 [2]: 14 µM (inactive)
GI50 [3]: 3.76 µM (inactive)
GI50 [4]: 6.84 µM (inactive)
GI50 [5]: 2.18 µM (inactive)
GI50 [6]: 21.6 µM (inactive)
GI50 [7]: 4.6 µM (inactive)
GI50 [8]: 13.1 µM (inactive)
GI50 [9]: 2.31 µM (inactive)
GI50 [10]: 13.4 µM (inactive)
GI50 [11]: 6.49 µM (inactive)
GI50 [12]: 9.82 µM (inactive)
GI50 [13]: 11.5 µM (inactive)
GI50 [14]: 16 µM (inactive)
GI50 [15]: 11.8 µM (inactive)
GI50 [16]: 9.31 µM (inactive)
GI50 [17]: 6.9 µM (inactive)
GI50 [18]: 22.2 µM (inactive)
GI50 [19]: 12.5 µM (inactive)
GI50 [20]: 11.4 µM (inactive)

O=C(/C=C/c1ccccc1)c1ccc(NCc2nc3ccccc3[nH]2)cc1
GI50 [1]: 5.24 µM (inactive)
GI50 [2]: 7.66 µM (inactive)
GI50 [3]: 2.48 µM (inactive)
GI50 [4]: 3.21 µM (inactive)
GI50 [5]: 2.33 µM (inactive)
GI50 [6]: 11.2 µM (inactive)
GI50 [7]: 2.51 µM (inactive)
GI50 [8]: 1.95 µM (inactive)
GI50 [9]: 3.56 µM (inactive)
GI50 [10]: 2.55 µM (inactive)
GI50 [11]: 4.14 µM (inactive)
GI50 [12]: 2.8 µM (inactive)
GI50 [13]: 5.22 µM (inactive)
GI50 [14]: 6.44 µM (inactive)
GI50 [15]: 2.17 µM (inactive)
GI50 [16]: 2.45 µM (inactive)
GI50 [17]: 5.33 µM (inactive)
GI50 [18]: 3.73 µM (inactive)
GI50 [19]: 8.05 µM (inactive)
GI50 [20]: 7.21 µM (inactive)

C1COCCOP2(N3CC3)=NP(N3CC3)(=NP(N3CC3)(N3CC3)=N2)OCCOCCO1 (stereo not given)
GI50 [1]: > 100 µM (inactive)
GI50 [2]: > 100 µM (inactive)
GI50 [3]: 77.3 µM (inactive)
GI50 [4]: > 100 µM (inactive)
GI50 [5]: > 100 µM (inactive)
GI50 [6]: > 100 µM (inactive)
GI50 [7]: > 100 µM (inactive)
GI50 [8]: > 100 µM (inactive)
GI50 [9]: > 100 µM (inactive)
GI50 [10]: > 100 µM (inactive)
GI50 [11]: > 100 µM (inactive)
GI50 [12]: > 100 µM (inactive)
GI50 [13]: > 100 µM (inactive)
GI50 [14]: > 100 µM (inactive)
GI50 [15]: > 100 µM (inactive)
GI50 [16]: > 100 µM (inactive)
GI50 [17]: > 100 µM (inactive)
GI50 [18]: > 100 µM (inactive)
GI50 [19]: > 100 µM (inactive)
GI50 [20]: > 100 µM (inactive)

C/N=C(N)/N=C(\N)Nc1cc2ccccc2c2ccccc12
GI50 [1]: 11.2 µM (inactive)
GI50 [2]: 13.5 µM (inactive)
GI50 [3]: 7.74 µM (inactive)
GI50 [4]: 13.7 µM (inactive)
GI50 [5]: 4.06 µM (inactive)
GI50 [6]: 17.5 µM (inactive)
GI50 [7]: 19.1 µM (inactive)
GI50 [8]: 17.1 µM (inactive)
GI50 [9]: 10.4 µM (inactive)
GI50 [10]: 17.1 µM (inactive)
GI50 [11]: 13.1 µM (inactive)
GI50 [12]: 16.7 µM (inactive)
GI50 [13]: 14.9 µM (inactive)
GI50 [14]: 13.4 µM (inactive)
GI50 [15]: 15.2 µM (inactive)
GI50 [16]: 16.5 µM (inactive)
GI50 [17]: 12.5 µM (inactive)
GI50 [18]: 16.7 µM (inactive)
GI50 [19]: 14.9 µM (inactive)
GI50 [20]: 11.9 µM (inactive)

O=C1/C(=C/c2ccc(O)cc2)CCCC1CN1CCCCC1 (stereo not given)
GI50 [1]: 6.84 µM (inactive)
GI50 [2]: 1.73 µM (inactive)
GI50 [3]: 2.57 µM (inactive)
GI50 [4]: 2.16 µM (inactive)
GI50 [5]: 0.483 µM (active)
GI50 [6]: 15.7 µM (inactive)
GI50 [7]: 1.42 µM (inactive)
GI50 [8]: 1.64 µM (inactive)
GI50 [9]: 2.2 µM (inactive)
GI50 [10]: 5.12 µM (inactive)
GI50 [11]: 1.25 µM (inactive)
GI50 [12]: 4.41 µM (inactive)
GI50 [13]: 13.7 µM (inactive)
GI50 [14]: 3.44 µM (inactive)
GI50 [15]: 3.94 µM (inactive)
GI50 [16]: 6.01 µM (inactive)
GI50 [17]: 2.29 µM (inactive)
GI50 [18]: 2.52 µM (inactive)
GI50 [19]: 1.83 µM (inactive)
GI50 [20]: 2.51 µM (inactive)

CCOC(=O)NC(=O)c1cn(CCCOC(=O)CCCCCCCCCCC(=O)OCCCn2cc(C(=O)NC(=O)OCC)c(=O)n(C)c2=O)c(=O)n(C)c1=O
GI50 [1]: > 100 µM (inactive)
GI50 [2]: > 100 µM (inactive)
GI50 [3]: > 100 µM (inactive)
GI50 [4]: > 100 µM (inactive)
GI50 [5]: > 100 µM (inactive)
GI50 [6]: > 100 µM (inactive)
GI50 [7]: > 100 µM (inactive)
GI50 [8]: > 100 µM (inactive)
GI50 [9]: > 100 µM (inactive)
GI50 [10]: > 100 µM (inactive)
GI50 [11]: > 100 µM (inactive)
GI50 [12]: > 100 µM (inactive)
GI50 [13]: > 100 µM (inactive)
GI50 [14]: > 100 µM (inactive)
GI50 [15]: > 100 µM (inactive)
GI50 [16]: > 100 µM (inactive)
GI50 [17]: > 100 µM (inactive)
GI50 [18]: > 100 µM (inactive)
GI50 [19]: > 100 µM (inactive)
GI50 [20]: > 100 µM (inactive)

COc1ccc2[nH]c3c(c2c1)[C@H](C)C[C@@H]1C(=O)N(c2ccccc2)C(=O)[C@H]31
GI50 [1]: 20.6 µM (inactive)
GI50 [2]: 37.8 µM (inactive)
GI50 [3]: 32.5 µM (inactive)
GI50 [4]: 51.3 µM (inactive)
GI50 [5]: > 100 µM (inactive)
GI50 [6]: 24 µM (inactive)
GI50 [7]: 46 µM (inactive)
GI50 [8]: 17.8 µM (inactive)
GI50 [9]: 20.6 µM (inactive)
GI50 [10]: 22.3 µM (inactive)
GI50 [11]: 16.1 µM (inactive)
GI50 [12]: 24 µM (inactive)
GI50 [13]: 29.6 µM (inactive)
GI50 [14]: 26.6 µM (inactive)
GI50 [15]: 21.2 µM (inactive)
GI50 [16]: 39.4 µM (inactive)
GI50 [17]: 27.1 µM (inactive)
GI50 [18]: 56.1 µM (inactive)
GI50 [19]: 44.1 µM (inactive)
GI50 [20]: 36.2 µM (inactive)
